Columns and labels:
[1] = system: ovarian cancer line SK-OV3 cells; assay: CTG (CellTiter-Glo) cell viability assay, 6×6 combo matrix, 72 h, SK-OV-3; conditions: SK-OV-3;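 also: luminescent signal read after CellTiter-Glo addition, cells exposed to compounds for 72 h at 37 °C under 5% CO2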
Description: (§1) 7) Using complete cell medium, adjust the volume of the suspension to achieve a cell concentration.
(§2) Solid compound of cis-platinum was solubilized in PBS to a stock solution of 3.333 mM.
(§3) Final volume is 100 µL per well at this point.
(§4) 1) Incubate the plates at room temperature and away from light for 30 minutes.
(§5) 3) Add 100 µL /well of CellTiter-Glo® Reagent in each well. Avoid light.
(§6) 4) Mix contents for 2 minutes on an orbital shaker.
(§7) 5) Incubate plate at room temperature for 10 minutes to stabilize the luminescent signal.

[2] = system: prostate adenocarcinoma line LNCap cells; assay: CTG (CellTiter-Glo) cell viability assay, 6×6 combo matrix, 72 h, LNCaP;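 also: luminescence signal read after adding CellTiter-Glo reagent, with cells exposed to compounds for 72 h at 37 °C under 5% CO2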
Description: as §1, §2, §3, §4, §5, §6, §7

[3] = system: pancreatic cancer line Capan-1 cells; assay: CTG (CellTiter-Glo) cell viability assay, 6×6 combo matrix, 72 h, Capan-1; assay type: cell-based; conditions: for Relatively Cell inhibition of vehicle control(%): Capan-1
Description: To measure the cell inhibition effect of compounds and synergy effect of test articles on ten (10) cell lines using standard CTG assay.
b. A549, T47D, SK-OV-3, MKN45, SK-Hep-1, HT-29, Capan-1, 786-O and LNCaP cell line, for compounds and vehicle groups, the seeding density of cell lines is 3000 cells/80 µL per well. For blank groups, add 100 µL medium. For PBS groups, add 100 µL PBS.
8) Incubate the U87MG, A549, T47D, SK-OV-3, MKN45, SK-Hep-1, HT-29, Capan-1, 786-O and LNCaP cells overnight at 37° C./5% CO2.
5) Incubate the plates at 37° C./5% CO2 for 72 hours.
6) Read plates in Envision.

[4] = system: colorectal cancer line HT29 cells; assay: CTG (CellTiter-Glo) cell viability assay, 6×6 combo matrix, 72 h, HT29; conditions: HT29;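 also: cells exposed to compounds for 72 hours at 37 °C under 5% CO2, then viability read as luminescence after adding CellTiter-Glo Reagent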
[5] = system: Liver cancer line SK-HEP-1 cells; assay: CTG (CellTiter-Glo) cell viability assay, 6×6 combo matrix, 72 h, SK-Hep-1;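 also: luminescent signal read after 72 h compound exposure at 37 °C under 5% CO2, with medium-only wells serving as blank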
[6] = system: glioblastoma line U87MG cells; assay: CTG (CellTiter-Glo) cell viability assay, 6×6 combo matrix, 72 h, U87MG;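 also: U87MG cells seeded at 2000 per well, exposed 72 h, viability read by CellTiter-Glo luminescence, inhibition expressed relative to vehicle-treated wells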
Description: as §1
U87MG cell lines, for compounds and vehicle groups, the seeding density of cell lines is 2000 cells/80 µL per well. For blank groups, add 100 µL medium. For PBS groups, add 100 µL PBS.
as §2, §3, §4, §5, §6, §7

[7] = system: breast cancer line T47D cells; assay: CTG (CellTiter-Glo) cell viability assay, 6×6 combo matrix, 72 h, T47D;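 also: luminescence read-out after 72 h at 37 °C under 5% CO2, with medium-only wells as blanks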
Description: as §1, §2, §3, §4, §5, §6, §7

[8] = system: lung adenocarcinoma line A549 cells; assay: CTG (CellTiter-Glo) cell viability assay, 6×6 combo matrix, 72 h, A549; conditions: A549;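 also: luminescent ATP readout with CellTiter-Glo after compound exposure, used to assess growth inhibition and combination synergy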
[9] = system: gastric cancer line MKN45 cells; assay: CTG (CellTiter-Glo) cell viability assay, 6×6 combo matrix, 72 h, MKN45;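 also: MKN45 cell viability read as CellTiter-Glo luminescence after 72 h culture at 37 °C under 5% CO2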
Description: as §1, §2, §3, §4, §5, §6, §7

[10] = system: kidney cancer line 786-O cells; assay: CTG (CellTiter-Glo) cell viability assay, 6×6 combo matrix, 72 h, 786-O; conditions: for Relatively Cell inhibition of vehicle control(%): 786-O;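 as to all read-outs here: luminescence read-out after adding CellTiter-Glo reagent, with cells incubated at 37 °C under 5% CO2 during compound exposure, part of a ten cell line synergy study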
Description: as §1, §2, §3, §4, §5, §6, §7

[11] = cisplatin 0.048 µM only (myricetin plate)
[12] = cisplatin 1.2 µM only (myricetin plate)
[13] = cisplatin 6 µM only (myricetin plate)
[14] = cisplatin 30 µM only (myricetin plate)

N.N.[Cl][Pt][Cl] [cisplatin]
Relatively Cell inhibition of vehicle control(%) ([1]; Cis 0.048 µM only (LB-1 matrix)): -0.61% | Relatively Cell inhibition of vehicle control(%) ([1]; Cis 0.048 µM only (myricetin matrix)): 0.65% | Relatively Cell inhibition of vehicle control(%) ([1]; Cis 1.2 µM only (LB-1 matrix)): 7.66% | Relatively Cell inhibition of vehicle control(%) ([1]; Cis 1.2 µM only (myricetin matrix)): 17.32% | Relatively Cell inhibition of vehicle control(%) ([1]; Cis 6 µM only (LB-1 matrix)): 50.05% | Relatively Cell inhibition of vehicle control(%) ([1]; Cis 6 µM only (myricetin matrix)): 55.97% | Relatively Cell inhibition of vehicle control(%) ([1]; Cis 30 µM only (LB-1 matrix)): 88.98% | Relatively Cell inhibition of vehicle control(%) ([1]; Cis 30 µM only (myricetin matrix)): 85.03% | Relatively Cell inhibition of vehicle control(%) ([2]; cisplatin 0.048 µM only (LB-1 plate)): -11.07% | Relatively Cell inhibition of vehicle control(%) [2, 11]: -7.42% | Relatively Cell inhibition of vehicle control(%) ([2]; cisplatin 1.2 µM only (LB-1 plate)): -13.28% | Relatively Cell inhibition of vehicle control(%) [2, 12]: -9.21% | Relatively Cell inhibition of vehicle control(%) ([2]; cisplatin 6 µM only (LB-1 plate)): 12.99% | Relatively Cell inhibition of vehicle control(%) [2, 13]: 19.01% | Relatively Cell inhibition of vehicle control(%) ([2]; cisplatin 30 µM only (LB-1 plate)): 53.09% | Relatively Cell inhibition of vehicle control(%) [2, 14]: 61.54% | Relatively Cell inhibition of vehicle control(%) ([3]; Cis 0.048 µM only): -11.79% | Relatively Cell inhibition of vehicle control(%) ([3]; Cis 1.2 µM only): 19.41% | Relatively Cell inhibition of vehicle control(%) ([3]; Cis 6 µM only): 49.43% | Relatively Cell inhibition of vehicle control(%) ([3]; Cis 30 µM only): 79.85% | Relatively Cell inhibition of vehicle control ([3]; cisplatin 0.048 µM only): -4.42% | Relatively Cell inhibition of vehicle control ([3]; cisplatin 1.2 µM only): 16.43% | Relatively Cell inhibition of vehicle control ([3]; cisplatin 6 µM only): 42.34% | Relatively Cell inhibition of vehicle control ([3]; cisplatin 30 µM only): 66.79% | Relatively Cell inhibition of vehicle control(%) ([4]; Cis 0.048 µM only (LB-1 0)): 2.74% | Relatively Cell inhibition of vehicle control(%) ([4]; Cis 0.048 µM only (Myr 0)): -4.21% | Relatively Cell inhibition of vehicle control(%) ([4]; Cis 1.2 µM only (LB-1 0)): 6.85% | Relatively Cell inhibition of vehicle control(%) ([4]; Cis 1.2 µM only (Myr 0)): 6.63% | Relatively Cell inhibition of vehicle control(%) ([4]; Cis 6 µM only (LB-1 0)): 19.05% | Relatively Cell inhibition of vehicle control(%) ([4]; Cis 6 µM only (Myr 0)): 20.8% | Relatively Cell inhibition of vehicle control(%) ([4]; Cis 30 µM only (LB-1 0)): 52.83% | Relatively Cell inhibition of vehicle control(%) ([4]; Cis 30 µM only (Myr 0)): 66.86% | Relatively Cell inhibition of vehicle control ([5]; cisplatin 0.048 µM only (LB-1 table)): -8.71% | Relatively Cell inhibition of vehicle control ([5]; cisplatin 0.048 µM only (myricetin table)): -7.69% | Relatively Cell inhibition of vehicle control ([5]; cisplatin 1.2 µM only (LB-1 table)): -10.98% | Relatively Cell inhibition of vehicle control ([5]; cisplatin 1.2 µM only (myricetin table)): -2.56% | Relatively Cell inhibition of vehicle control ([5]; cisplatin 6 µM only (LB-1 table)): 29.88% | Relatively Cell inhibition of vehicle control ([5]; cisplatin 6 µM only (myricetin table)): 29.55% | Relatively Cell inhibition of vehicle control ([5]; cisplatin 30 µM only (LB-1 table)): 70.68% | Relatively Cell inhibition of vehicle control ([5]; cisplatin 30 µM only (myricetin table)): 76.71% | Relatively Cell inhibition of vehicle control(%) ([6]; cisplatin 0.048 µM only): 1.97% | Relatively Cell inhibition of vehicle control(%) [6, 11]: 0.89% | Relatively Cell inhibition of vehicle control(%) ([6]; cisplatin 1.2 µM only): 11.78% | Relatively Cell inhibition of vehicle control(%) [6, 12]: 15.05% | Relatively Cell inhibition of vehicle control(%) ([6]; cisplatin 6 µM only): 46.78% | Relatively Cell inhibition of vehicle control(%) [6, 13]: 58.90% | Relatively Cell inhibition of vehicle control(%) ([6]; cisplatin 30 µM only): 83.20% | Relatively Cell inhibition of vehicle control(%) [6, 14]: 86.28% | Relatively Cell inhibition of vehicle control(%) ([7]; 0.048 µM cisplatin only (LB-1 0)): 1.63% | Relatively Cell inhibition of vehicle control(%) ([7]; 0.048 µM cisplatin only (myricetin 0)): 0.23% | Relatively Cell inhibition of vehicle control(%) ([7]; 1.2 µM cisplatin only (LB-1 0)): -1.67% | Relatively Cell inhibition of vehicle control(%) ([7]; 1.2 µM cisplatin only (myricetin 0)): 0.07% | Relatively Cell inhibition of vehicle control(%) ([7]; 6 µM cisplatin only (LB-1 0)): -0.49% | Relatively Cell inhibition of vehicle control(%) ([7]; 6 µM cisplatin only (myricetin 0)): 11.28% | Relatively Cell inhibition of vehicle control(%) ([7]; 30 µM cisplatin only (LB-1 0)): 22.74% | Relatively Cell inhibition of vehicle control(%) ([7]; 30 µM cisplatin only (myricetin 0)): 36.54% | inhibition rate ([8]; 30 µM cisplatin only (LB-1 0), 72 h): 65.03% | Relatively Cell inhibition of vehicle control(%) ([8]; cisplatin 0.048 µM only (myricetin 0)): 1.46% | Relatively Cell inhibition of vehicle control(%) ([8]; cisplatin 1.2 µM only (myricetin 0)): 0.61% | Relatively Cell inhibition of vehicle control(%) ([8]; cisplatin 6 µM only (myricetin 0)): 33.19% | Relatively Cell inhibition of vehicle control(%) ([8]; cisplatin 30 µM only (myricetin 0)): 77.27% | Relatively Cell inhibition of vehicle control(%) ([8]; Cis 0.048 µM only): 0.17% | Relatively Cell inhibition of vehicle control(%) ([8]; Cis 1.2 µM only): 1.57% | Relatively Cell inhibition of vehicle control(%) ([8]; Cis 6 µM only): 33.27% | Relatively Cell inhibition of vehicle control(%) ([8]; Cis 30 µM only): 65.03% | Relatively Cell inhibition of vehicle control(%) ([9]; Cis 0.048 µM only (LB-1 0)): 7.78% | Relatively Cell inhibition of vehicle control(%) ([9]; Cis 0.048 µM only (Myr 0)): 5.10% | Relatively Cell inhibition of vehicle control(%) ([9]; Cis 1.2 µM only (LB-1 0)): 5.53% | Relatively Cell inhibition of vehicle control(%) ([9]; Cis 1.2 µM only (Myr 0)): 22.76% | Relatively Cell inhibition of vehicle control(%) ([9]; Cis 6 µM only (LB-1 0)): 33.22% | Relatively Cell inhibition of vehicle control(%) ([9]; Cis 6 µM only (Myr 0)): 48.92% | Relatively Cell inhibition of vehicle control(%) ([9]; Cis 30 µM only (LB-1 0)): 81.54% | Relatively Cell inhibition of vehicle control(%) ([9]; Cis 30 µM only (Myr 0)): 90.46% | Relatively Cell inhibition of vehicle control(%) ([10]; Cis 0.048 µM only (LB-1 0)): 0.45% | Relatively Cell inhibition of vehicle control(%) ([10]; Cis 1.2 µM only (LB-1 0)): 5.31% | Relatively Cell inhibition of vehicle control(%) ([10]; Cis 6 µM only (LB-1 0)): 60.32% | Relatively Cell inhibition of vehicle control(%) ([10]; Cis 30 µM only (LB-1 0)): 90.04% | Relatively Cell inhibition of vehicle control ([10]; cisplatin 0.048 µM only): -1.09% | Relatively Cell inhibition of vehicle control ([10]; cisplatin 1.2 µM only): 10.33% | Relatively Cell inhibition of vehicle control ([10]; cisplatin 6 µM only): 67.62% | Relatively Cell inhibition of vehicle control ([10]; cisplatin 30 µM only): 86.78%

— patent publication US20230165831A1, “METHOD AND COMPOSITION FOR RENDERING CANCER CELLS SUSCEPTIBLE TO TREATMENT BY TARGETED ONCOGENETIC DRIVERS” (IMPACT BIOLIFE SCIENCE, INC., priority 2021, published 2023)
